Results published in the NIST ThermoML archive (doi:10.1016/j.fluid.2006.05.007).

Experiment: xn = mol fraction of the nth substance listed
Settings: Fluid (supercritical or subcritical phases)

CO [methanol] + O
Settings	mass density [kg/m3]
572.91 K, 10085 kPa, x1 = 0.3044	77.4
573.08 K, 10068 kPa, x1 = 0.4031	79.4
573.15 K, 10080 kPa, x1 = 0.5144	83.3
573.26 K, 10081 kPa, x1 = 0.59	85.5
573.31 K, 10076 kPa, x1 = 0.7905	92.4
573.34 K, 10081 kPa, x1 = 0.8802	94.8
573.35 K, 10077 kPa, x1 = 0.6896	87.7
573.43 K, 10083 kPa, x1 = 0.0997	405
573.46 K, 11526 kPa, x1 = 0.4031	107.2
573.49 K, 10078 kPa, x1 = 0.0494	679.2
573.52 K, 11527 kPa, x1 = 0.5144	108.7
573.63 K, 11542 kPa, x1 = 0.59	111.3
573.67 K, 11523 kPa, x1 = 0.6896	113.3
573.72 K, 11537 kPa, x1 = 0.0175	704.3
573.74 K, 11532 kPa, x1 = 0.7905	115.7
573.74 K, 11535 kPa, x1 = 0.8802	118.9
573.75 K, 11533 kPa, x1 = 0.007	712.1
573.78 K, 11525 kPa, x1 = 0.0997	646.8
573.78 K, 11527 kPa, x1 = 0.1971	534.3
573.78 K, 11530 kPa, x1 = 0.1484	611.5
573.79 K, 11533 kPa, x1 = 0.0494	682.1
574.29 K, 20003 kPa, x1 = 0.0997	671.8
574.34 K, 20013 kPa, x1 = 0.3044	560.2
574.34 K, 20016 kPa, x1 = 0.6896	398.6
574.35 K, 20000 kPa, x1 = 0.0494	701.9
574.37 K, 19997 kPa, x1 = 0.1484	645.8
574.37 K, 20007 kPa, x1 = 0.59	431.4
574.37 K, 20014 kPa, x1 = 0.1971	617
574.37 K, 20019 kPa, x1 = 0.4031	512.2
574.38 K, 20012 kPa, x1 = 0.7905	375.2
574.39 K, 20005 kPa, x1 = 0.5144	460.1
574.45 K, 20012 kPa, x1 = 0.8802	354.5
588.56 K, 13757 kPa, x1 = 0.3044	135.3
588.59 K, 13753 kPa, x1 = 0.5144	131.6
588.63 K, 13755 kPa, x1 = 0.4031	133
588.68 K, 13752 kPa, x1 = 0.7905	137.1
588.69 K, 13759 kPa, x1 = 0.59	132.6
588.74 K, 13760 kPa, x1 = 0.6896	134.8
588.76 K, 13753 kPa, x1 = 0.1971	409.6
588.79 K, 13754 kPa, x1 = 0.8802	139.5
588.8 K, 13760 kPa, x1 = 0.1484	563.2
588.81 K, 13767 kPa, x1 = 0.007	679.9
588.83 K, 13755 kPa, x1 = 0.0997	606.6
588.84 K, 13753 kPa, x1 = 0.0175	672.4
588.85 K, 13755 kPa, x1 = 0.0494	647.6
